PubChem BioAssay (NCI)
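Exposure lasted 48 hours, with cells grown in 96-well plates and compounds tested at five concentrations. Abbreviation: GI50, concentration required for 50% inhibition of growth. TGI is the concentration that stops growth completely.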

How the values were obtained:
Experiment in all cases: inhibition of tumour cell growth, NCI panel, 48 h
SK-MEL-28 melanoma = tested on: SK-MEL-28 melanoma
OVCAR-4 ovarian = tested on: OVCAR-4 ovarian
OVCAR-5 ovarian = tested on: OVCAR-5 ovarian
NCI-H23 lung = tested on: NCI-H23 lung
786-0 renal = tested on: 786-0 renal
RPMI-8226 leukemia = tested on: RPMI-8226 leukemia
HS 578T breast = tested on: HS 578T breast
MDA-MB-231 breast = tested on: MDA-MB-231 breast
K-562 leukemia = tested on: K-562 leukemia
MDA-MB-435 = tested on: MDA-MB-435
IGROV1 ovarian = tested on: IGROV1 ovarian
A498 renal = tested on: A498 renal
SN12C renal = tested on: SN12C renal
BT-549 breast = tested on: BT-549 breast
U251 CNS = tested on: U251 CNS
A549 NSCLC = tested on: A549 NSCLC
OVCAR-3 ovarian = tested on: OVCAR-3 ovarian
UACC-257 melanoma = tested on: UACC-257 melanoma
SW-620 colon = tested on: SW-620 colon
SNB-75 CNS = tested on: SNB-75 CNS
EKVX NSCLC = tested on: EKVX NSCLC
UO-31 renal = tested on: UO-31 renal
OVCAR-8 ovarian = tested on: OVCAR-8 ovarian
MALME-3M melanoma = tested on: MALME-3M melanoma
HCT-116 colon = tested on: HCT-116 colon
TK-10 renal = tested on: TK-10 renal
SNB-19 CNS = tested on: SNB-19 CNS
KM12 colon = tested on: KM12 colon
HCT-15 colon = tested on: HCT-15 colon
MCF7 breast = tested on: MCF7 breast
SK-MEL-5 melanoma = tested on: SK-MEL-5 melanoma
NCI/ADR-RES ovarian = tested on: NCI/ADR-RES ovarian
SK-OV-3 ovarian = tested on: SK-OV-3 ovarian
M14 melanoma = tested on: M14 melanoma
RXF 393 renal = tested on: RXF 393 renal
SF-268 CNS = tested on: SF-268 CNS
HOP-62 NSCLC = tested on: HOP-62 NSCLC
MOLT-4 leukemia = tested on: MOLT-4 leukemia
HL-60(TB) leukemia = tested on: HL-60(TB) leukemia
COLO 205 colon = tested on: COLO 205 colon
LOX IMVI melanoma = tested on: LOX IMVI melanoma
UACC-62 melanoma = tested on: UACC-62 melanoma
HT29 colon = tested on: HT29 colon
HOP-92 NSCLC = tested on: HOP-92 NSCLC
HCC-2998 colon = tested on: HCC-2998 colon
SR leukemia = tested on: SR leukemia
CCRF-CEM leukemia = tested on: CCRF-CEM leukemia
NCI-H522 lung = tested on: NCI-H522 lung
ACHN renal = tested on: ACHN renal
SF-539 CNS = tested on: SF-539 CNS
SF-295 CNS = tested on: SF-295 CNS
NCI-H460 lung = tested on: NCI-H460 lung
SK-MEL-2 melanoma = tested on: SK-MEL-2 melanoma
T-47D breast = tested on: T-47D breast
PC-3 prostate = tested on: PC-3 prostate

`C[C@@H]1CCC/C=C/[C@H]2C[C@@H](O)C[C@@H]2[C@@H](O)/C=C/C(=O)O1` gave a GI50 (SK-MEL-28 melanoma) of 40 nM, a TGI (SK-MEL-28 melanoma) of 12000 nM and a GI50 (OVCAR-4 ovarian) of 109 nM. For the same compound, the TGI (OVCAR-4 ovarian) was greater than 33300 nM, the GI50 (OVCAR-5 ovarian) was 136 nM and the TGI (OVCAR-5 ovarian) was greater than 33300 nM. For the same compound, the GI50 (NCI-H23 lung) was 129 nM, the TGI (NCI-H23 lung) was greater than 33300 nM and the GI50 (786-0 renal) was 95.1 nM. For the same compound, the TGI (786-0 renal) was greater than 33300 nM, the GI50 (RPMI-8226 leukemia) was 104 nM and the TGI (RPMI-8226 leukemia) was 553 nM. For the same compound, the GI50 (HS 578T breast) was 21.1 nM, the TGI (HS 578T breast) was greater than 33300 nM and the GI50 (MDA-MB-231 breast) was 69.7 nM. The TGI (MDA-MB-231 breast) was 171 nM, the GI50 (K-562 leukemia) was 141 nM and the TGI (K-562 leukemia) was greater than 33300 nM. It also gave a GI50 (MDA-MB-435) of 136 nM, a TGI (MDA-MB-435) greater than 33300 nM and a GI50 (IGROV1 ovarian) of 145 nM. For the same compound, the TGI (IGROV1 ovarian) was greater than 33300 nM, the GI50 (A498 renal) was 59.5 nM and the TGI (A498 renal) was 166 nM. It also gave a GI50 (SN12C renal) of 114 nM, a TGI (SN12C renal) greater than 33300 nM and a GI50 (BT-549 breast) of 140 nM. For the same compound, the TGI (BT-549 breast) was greater than 33300 nM, the GI50 (U251 CNS) was 137 nM and the TGI (U251 CNS) was greater than 33300 nM. It also gave a GI50 (A549 NSCLC) of 127 nM, a TGI (A549 NSCLC) greater than 33300 nM and a GI50 (OVCAR-3 ovarian) of 111 nM. The TGI (OVCAR-3 ovarian) was 401 nM, the GI50 (UACC-257 melanoma) was 110 nM and the TGI (UACC-257 melanoma) was greater than 33300 nM. It also gave a GI50 (SW-620 colon) of 101 nM, a TGI (SW-620 colon) of 327 nM and a GI50 (SNB-75 CNS) of 23 nM. The TGI (SNB-75 CNS) was greater than 33300 nM, the GI50 (EKVX NSCLC) was 108 nM and the TGI (EKVX NSCLC) was greater than 33300 nM. For the same compound, the GI50 (UO-31 renal) was 116 nM, the TGI (UO-31 renal) was greater than 33300 nM and the GI50 (OVCAR-8 ovarian) was 91.4 nM. The TGI (OVCAR-8 ovarian) was greater than 33300 nM, the GI50 (MALME-3M melanoma) was 86.8 nM and the TGI (MALME-3M melanoma) was 1170 nM. For the same compound, the GI50 (HCT-116 colon) was 99.5 nM, the TGI (HCT-116 colon) was greater than 33300 nM and the GI50 (TK-10 renal) was 114 nM. For the same compound, the TGI (TK-10 renal) was 961 nM, the GI50 (SNB-19 CNS) was 167 nM and the TGI (SNB-19 CNS) was greater than 33300 nM. The GI50 (KM12 colon) was 84.5 nM, the TGI (KM12 colon) was 3420 nM and the GI50 (HCT-15 colon) was 112 nM. For the same compound, the TGI (HCT-15 colon) was greater than 33300 nM, the GI50 (MCF7 breast) was 96.6 nM and the TGI (MCF7 breast) was greater than 33300 nM. It also gave a GI50 (SK-MEL-5 melanoma) of 54.7 nM, a TGI (SK-MEL-5 melanoma) of 109 nM and a GI50 (NCI/ADR-RES ovarian) of 104 nM. The TGI (NCI/ADR-RES ovarian) was greater than 33300 nM, the GI50 (SK-OV-3 ovarian) was 144 nM and the TGI (SK-OV-3 ovarian) was greater than 33300 nM. For the same compound, the GI50 (M14 melanoma) was 93.2 nM, the TGI (M14 melanoma) was greater than 33300 nM and the GI50 (RXF 393 renal) was 49.8 nM. The TGI (RXF 393 renal) was 258 nM, the GI50 (SF-268 CNS) was 102 nM and the TGI (SF-268 CNS) was greater than 33300 nM. The GI50 (HOP-62 NSCLC) was 145 nM, the TGI (HOP-62 NSCLC) was greater than 33300 nM and the GI50 (MOLT-4 leukemia) was 146 nM. It also gave a TGI (MOLT-4 leukemia) greater than 33300 nM, a GI50 (HL-60(TB) leukemia) of 97.3 nM and a TGI (HL-60(TB) leukemia) of 374 nM. For the same compound, the GI50 (COLO 205 colon) was 63 nM, the TGI (COLO 205 colon) was 131 nM and the GI50 (LOX IMVI melanoma) was 67.7 nM. It also gave a TGI (LOX IMVI melanoma) of 155 nM, a GI50 (UACC-62 melanoma) of 138 nM and a TGI (UACC-62 melanoma) greater than 33300 nM. It also gave a GI50 (HT29 colon) of 96.1 nM, a TGI (HT29 colon) of 316 nM and a GI50 (HOP-92 NSCLC) of 89.2 nM. It also gave a TGI (HOP-92 NSCLC) of 1280 nM, a GI50 (HCC-2998 colon) of 139 nM and a TGI (HCC-2998 colon) greater than 33300 nM. The GI50 (SR leukemia) was 111 nM, the TGI (SR leukemia) was greater than 33300 nM and the GI50 (CCRF-CEM leukemia) was 130 nM. For the same compound, the TGI (CCRF-CEM leukemia) was greater than 33300 nM, the GI50 (NCI-H522 lung) was 75.6 nM and the TGI (NCI-H522 lung) was 225 nM. The GI50 (ACHN renal) was 113 nM, the TGI (ACHN renal) was 5160 nM and the GI50 (SF-539 CNS) was 149 nM. The TGI (SF-539 CNS) was greater than 33300 nM, the GI50 (SF-295 CNS) was 140 nM and the TGI (SF-295 CNS) was greater than 33300 nM. The GI50 (NCI-H460 lung) was 115 nM, the TGI (NCI-H460 lung) was greater than 33300 nM and the GI50 (SK-MEL-2 melanoma) was 92 nM. The TGI (SK-MEL-2 melanoma) was 236 nM, the GI50 (T-47D breast) was 109 nM and the TGI (T-47D breast) was 1360 nM. It also gave a GI50 (PC-3 prostate) of 125 nM and a TGI (PC-3 prostate) greater than 33300 nM.
